Values after ≈ are worked out from the molar mass of the structure shown.
Assays:
[1] = test system: Streptococcus faecalis LRP 7; assay: Bacteriostatic power in solid medium (MIC); assay type: cell-based; settings: Enterococcus faecalis, LRP7; solid medium; read-out: Minimum inhibiting concentration
Description: (§1) the bacteriostatic power, expressed as the minimum inhibiting concentration (MIC) against both aerobic and anaerobic, Gram positive and Gram negative, bacterial stocks: the related results are reported in the tables 2 and 3.

[2] = test system: Proteus vulgaris ATCC 6380 LRP 13; assay: Bacteriostatic power in solid medium (MIC); assay type: cell-based; settings: Proteus vulgaris, ATCC6380; solid medium; read-out: Minimum inhibiting concentration
Description: as §1

[3] = test system: Fusobacteriumnecrophroum ATCC 27852 LRP 210; assay: Bacteriostatic power in solid medium (MIC); assay type: cell-based; settings: solid medium; anaerobic; read-out: Minimum inhibiting concentration
Description: as §1

[4] = test system: Mycoplasma hominis I ATCC 14027 LRP 211; assay: Bacteriostatic power in solid medium (MIC); assay type: cell-based; settings: Metamycoplasma hominis, ATCC14027; solid medium; read-out: Minimum inhibiting concentration
Description: as §1

[5] = test system: Streptococcus pneumoniae ATCC 6303 LRP 53; assay: Bacteriostatic power in solid medium (MIC); assay type: cell-based; settings: Streptococcus pneumoniae, ATCC6303; solid medium; read-out: Minimum inhibiting concentration
Description: as §1

[6] = test system: Streptococcus pyogenes ATCC 8668 LRP 34; assay: Bacteriostatic power in solid medium (MIC); assay type: cell-based; settings: Streptococcus pyogenes, ATCC8668; solid medium; read-out: Minimum inhibiting concentration
Description: as §1

[7] = test system: Haemophilus influenzae ATCC 19418 LRP 213; assay: Bacteriostatic power in solid medium (MIC); assay type: cell-based; settings: Haemophilus influenzae, ATCC19418; solid medium; read-out: Minimum inhibiting concentration
Description: as §1

[8] = test system: Acholeplasma laidlawii ATCC 23206 LRP 204; assay: Bacteriostatic power in solid medium (MIC); assay type: cell-based; settings: Acholeplasma laidlawii, ATCC23206, read-out: Minimum inhibiting concentration
Description: as §1

[9] = test system: Streptococcus pneumoniae ATCC 6303 LRP 35; assay: Bacteriostatic power in solid medium (MIC); assay type: cell-based; settings: Streptococcus pneumoniae, ATCC6303; solid medium; read-out: Minimum inhibiting concentration
Description: as §1

[10] = test system: Neisseria gonorrhoeae ATCC 19424 LRP 214; assay: Bacteriostatic power in solid medium (MIC); assay type: cell-based; settings: Neisseria gonorrhoeae, ATCC19424; solid medium; read-out: Minimum inhibiting concentration
Description: as §1

[11] = test system: Klelsiella pneumoniae LRP 54; assay: Bacteriostatic power in solid medium (MIC); assay type: cell-based; settings: solid medium; read-out: Minimum inhibiting concentration
Description: as §1

[12] = test system: Pseudomonas aeruginosa LRP 9; assay: Bacteriostatic power in solid medium (MIC); assay type: cell-based; settings: Pseudomonas aeruginosa, LRP9; solid medium; read-out: Minimum inhibiting concentration
Description: as §1

Bacillus subtilis LRP 25 = assay: Bacteriostatic power in solid medium (MIC); assay type: cell-based; settings: Bacillus subtilis, LRP25; solid medium; read-out: Minimum inhibiting concentration
Description: as §1

[13] = test system: Micrococcus luteus ATCC 9341 LRP 6; assay: Bacteriostatic power in solid medium (MIC); assay type: cell-based; settings: Micrococcus luteus, ATCC9341; solid medium; read-out: Minimum inhibiting concentration
Description: as §1

[14] = test system: Streptococcus pneumoniae ATCC 6303 LRP 52; assay: Bacteriostatic power in solid medium (MIC); assay type: cell-based; settings: Streptococcus pneumoniae, ATCC6303; solid medium; read-out: Minimum inhibiting concentration
Description: as §1

[15] = test system: Micrococcus luteus ATCC 15957 LRP 193; assay: Bacteriostatic power in solid medium (MIC); assay type: cell-based; settings: Micrococcus luteus, ATCC15957; solid medium; Erythromycin resistant; read-out: Minimum inhibiting concentration
Description: as §1

[16] = test system: Corynebacterium diphteriae LRP 24; assay: Bacteriostatic power in solid medium (MIC); assay type: cell-based; settings: Corynebacterium, LRP24; solid medium; read-out: Minimum inhibiting concentration
Description: as §1

[17] = test system: Streptococcus faecalis subsp. zymogenes ATCC 12958 LRP 61; assay: Bacteriostatic power in solid medium (MIC); assay type: cell-based; settings: Enterococcus faecalis, ATCC12958; solid medium; read-out: Minimum inhibiting concentration
Description: as §1

[18] = test system: Bacteroides fragilis ATCC 23745 LRP 205; assay: Bacteriostatic power in solid medium (MIC); assay type: cell-based; settings: Bacteroides fragilis, ATCC23745; solid medium; anaerobic; read-out: Minimum inhibiting concentration
Description: as §1

[19] = test system: Streptococcus pyogenes ATCC 8668 LRP 197; assay: Bacteriostatic power in solid medium (MIC); assay type: cell-based; settings: Streptococcus pyogenes, ATCC8668; solid medium; read-out: Minimum inhibiting concentration
Description: as §1

[20] = test system: Staphylococcus aureus ATCC 6538P LRP 39; assay: Bacteriostatic power in solid medium (MIC); assay type: cell-based; settings: Staphylococcus aureus, ATCC6538P; solid medium; read-out: Minimum inhibiting concentration
Description: as §1

Escherichia coli LRP 50 = assay: Bacteriostatic power in solid medium (MIC); assay type: cell-based; settings: Escherichia coli, LRP50; solid medium; read-out: Minimum inhibiting concentration
Description: as §1

[21] = test system: Staphylococcus aureus ATCC 14154 LRP 78; assay: Bacteriostatic power in solid medium (MIC); assay type: cell-based; settings: Staphylococcus aureus, ATCC14154; solid medium; Erythromycin resistant; read-out: Minimum inhibiting concentration
Description: as §1

[22] = test system: Staphylococcus aureus ATCC 6538P LRP 14; assay: Bacteriostatic power in solid medium (MIC); assay type: cell-based; settings: Staphylococcus aureus, ATCC6538P; solid medium; Penycilline resistant; read-out: Minimum inhibiting concentration
Description: as §1

Shigella sonnei LRP 5 = assay: Bacteriostatic power in solid medium (MIC); assay type: cell-based; settings: LRP5, read-out: Minimum inhibiting concentration
Description: as §1

Salmonella typhy LRP 8 = assay: microbe, parasite or virus in culture; assay type: cell-based; settings: LRP8, solid medium, read-out: Minimum inhibiting concentration
Description: as §1

[23] = test system: Clostridium perfrigens ATCC 3624 LRP 206; assay: microbe, parasite or virus in culture; assay type: cell-based; settings: ATCC3624, solid medium, anaerobic, read-out: Minimum inhibiting concentration
Description: as §1

[24] = Stability in acidic environment at 25° C. (half-life of initial microbiological activity); assay type: physicochemical; settings: aqueous solution
Description: Stability in acidic environnment at 25° C. of the novel
Note: t 1/2 represents the time for reducing to one half the initial powe
of the antibiotic determined by microbiological method through diffusion
on a plate using the test stock Microccocus luteus (Sarcina lutea) ATCC

[25] = test system: Streptococcus pyogenes ATCC 8668 LRP 34; assay: Bacteriostatic power in liquid medium (MIC); assay type: cell-based; settings: Streptococcus pyogenes, ATCC8668; liquid medium; read-out: Minimum inhibiting concentration
Description: as §1

[26] = test system: Streptococcus faecalis subs. zymogenes ATCC 12958 LRP 61; assay: Bacteriostatic power in liquid medium (MIC); assay type: cell-based; settings: Enterococcus faecalis, ATCC12958; liquid medium; read-out: Minimum inhibiting concentration
Description: as §1

[27] = test system: Streptococcus pneumoniae ATCC 6303 LRP 35; assay: Bacteriostatic power in liquid medium (MIC); assay type: cell-based; settings: Streptococcus pneumoniae, ATCC6303; liquid medium; read-out: Minimum inhibiting concentration
Description: as §1

[28] = test system: Corynebacterium diphteriae LRP 24; assay: Bacteriostatic power in liquid medium (MIC); assay type: cell-based; settings: Corynebacterium, LRP24; liquid medium; read-out: Minimum inhibiting concentration
Description: as §1

[29] = test system: Staphylococcus aureus ATCC 6538 P LRP 39; assay: Bacteriostatic power in liquid medium (MIC); assay type: cell-based; settings: Staphylococcus aureus, ATCC6538; liquid medium; read-out: Minimum inhibiting concentration
Description: as §1

[30] = test system: Streptococcus faecalis subs. zymogenes LRP 61; assay: Minimum bactericidal concentration (MBC); assay type: cell-based
Description: (§2) the bacterial power, expressed as the minimum bactericidal power (MBC) against some Gram positive aerobic stocks (table 5).

[31] = test system: Streptococcus pyogenes ATCC 8668 LRP 34; assay: Minimum bactericidal concentration (MBC); assay type: cell-based
Description: as §2

[32] = test system: Streptococcus pneumoniae ATCC 6303 LRP 35; assay: Minimum bactericidal concentration (MBC); assay type: cell-based
Description: as §2

[33] = test system: Corynebacterium diphteriae LRP 24; assay: Minimum bactericidal concentration (MBC); assay type: cell-based
Description: as §2

[34] = test system: Staphylococcus aureus ATCC 6538 P LRP 39; assay: Minimum bactericidal concentration (MBC); assay type: cell-based
Description: as §2

Q: Which MIC [1] does the source give for `CC[C@H]1OC(=O)[C@H](C)[C@@H](O[C@H]2C[C@@](C)(O)[C@@H](O)[C@H](C)O2)[C@H](C)[C@@H](O[C@@H]2O[C@H](C)C[C@H](N(C)C)[C@H]2O)[C@](C)(O)C[C@](C)(F)C(=O)[C@H](C)[C@@H](O)[C@H]1C` [P-80202, (8S)-8-fluoroerythromycin D] here?
A: 0.097 µg/mL (≈ 0.134 µM)

Q: What about the MIC [2] of the same compound?
A: 25 µg/mL (≈ 34.6 µM)

Q: What about the MIC [3] of the same compound?
A: 6.25 µg/mL (≈ 8.66 µM)

Q: And the MIC [4]?
A: 25 µg/mL (≈ 34.6 µM)

Q: What about the MIC [5] of the same compound?
A: 0.024 µg/mL (≈ 0.0332 µM)

Q: And the MIC [6]?
A: 0.024 µg/mL (≈ 0.0332 µM)

Q: What about the MIC [7] of the same compound?
A: 6.25 µg/mL (≈ 8.66 µM)

Q: And the MIC [8]?
A: 3.12 µg/mL (≈ 4.32 µM)

Q: And the MIC [9]?
A: 0.024 µg/mL (≈ 0.0332 µM)

Q: And the MIC [10]?
A: 0.097 µg/mL (≈ 0.134 µM)

Q: What about the MIC [11] of the same compound?
A: 25 µg/mL (≈ 34.6 µM)

Q: And the MIC [12]?
A: 25 µg/mL (≈ 34.6 µM)

Q: What about the MIC (Bacillus subtilis LRP 25) of the same compound?
A: 0.049 µg/mL (≈ 0.0679 µM)

Q: What about the MIC [13] of the same compound?
A: 6 ng/mL (≈ 0.00831 µM)

Q: And the MIC [14]?
A: 0.024 µg/mL (≈ 0.0332 µM)

Q: What about the MIC [15] of the same compound?
A: 25 µg/mL (≈ 34.6 µM)

Q: What about the MIC [16] of the same compound?
A: 6 ng/mL (≈ 0.00831 µM)

Q: And the MIC [17]?
A: 0.097 µg/mL (≈ 0.134 µM)

Q: And the MIC [18]?
A: 0.39 µg/mL (≈ 0.54 µM)

Q: What about the MIC [19] of the same compound?
A: 0.024 µg/mL (≈ 0.0332 µM)

Q: What about the MIC [20] of the same compound?
A: 0.097 µg/mL (≈ 0.134 µM)

Q: And the MIC (Escherichia coli LRP 50)?
A: 25 µg/mL (≈ 34.6 µM)

Q: And the MIC [21]?
A: 25 µg/mL (≈ 34.6 µM)

Q: What about the MIC [22] of the same compound?
A: 0.097 µg/mL (≈ 0.134 µM)

Q: What about the MIC (Shigella sonnei LRP 5) of the same compound?
A: 25 µg/mL (≈ 34.6 µM)

Q: And the MIC (Salmonella typhy LRP 8)?
A: 12.5 µg/mL (≈ 17.3 µM)

Q: And the MIC [23]?
A: 3.12 µg/mL (≈ 4.32 µM)

Q: And the half-life ([24]; pH 2)?
A: 24 min

Q: What about the half-life ([24]; pH 3) of the same compound?
A: 600 min

Q: And the MIC [25]?
A: 0.049 µg/mL (≈ 0.0679 µM)

Q: And the MIC [26]?
A: 0.39 µg/mL (≈ 0.54 µM)

Q: What about the MIC [27] of the same compound?
A: 0.049 µg/mL (≈ 0.0679 µM)

Q: What about the MIC [28] of the same compound?
A: 0.012 µg/mL (≈ 0.0166 µM)

Q: What about the MIC [29] of the same compound?
A: 0.195 µg/mL (≈ 0.27 µM)

Q: What about the MBC/MIC [30] of the same compound?
A: 8

Q: And the MBC ([30]; Enterococcus faecalis, read-out: Minimum bactericidal concentration (MBC))?
A: 3.12 µg/mL (≈ 4.32 µM)

Q: What about the MBC/MIC [31] of the same compound?
A: 8

Q: What about the MBC ([31]; Streptococcus pyogenes, ATCC8668, read-out: Minimum bactericidal concentration (MBC)) of the same compound?
A: 0.39 µg/mL (≈ 0.54 µM)

Q: What about the MBC/MIC [32] of the same compound?
A: 4

Q: And the MBC ([32]; Streptococcus pneumoniae, ATCC6303, read-out: Minimum bactericidal concentration (MBC))?
A: 0.195 µg/mL (≈ 0.27 µM)

Q: And the MBC/MIC [33]?
A: 16

Q: And the MBC ([33]; Corynebacterium, LRP24, read-out: Minimum bactericidal concentration (MBC))?
A: 0.195 µg/mL (≈ 0.27 µM)

Q: What about the MBC/MIC [34] of the same compound?
A: 16

Q: And the MBC ([34]; Staphylococcus aureus, ATCC6538, read-out: Minimum bactericidal concentration (MBC))?
A: 3.12 µg/mL (≈ 4.32 µM)

Reference: US4439426A, “Semisynthetic macrolidic antibiotics, intermediate compounds for their preparation and related pharmaceutical compositions containing them” (priority 1981, dated 1984)
